Here are results for seven compounds from patent US9783803B2, “Inhibition of NEAT1 for treatment of solid tumors” (VIB VZW, priority 2014, dated 2017).

Entries after “also recorded” stand apart in the source; their conditions may differ.

The subject of one data set is NEAT1 promoter. Put plainly: p53 ChIP-seq in MCF-7 cells. The format is cell-based, human. The settings on record: 24 hours. How it is done: (§1) FIG. 1 provides evidence that NEAT1 is a direct p53 target gene in the breast cancer cell line MCF-7. RNA-seq and p53 ChIPseq experiments have been carried out in MCF-7 cells following exposure to the MDM2 antagonist Nutlin3a for 24 hours.
(§2) This upregulation is mediated through the recruitment of p53 to the NEAT1 promoter as illustrated by the increase intensity of the p53-ChIP-seq peaks (green in FIG. 1).

Data set [1] deals with NEAT1. Put plainly: NEAT1 induction by Nutlin in mouse embryonic fibroblasts. Conditions: early passage (P3) MEFs. The format is cell-based. The text has this:
FIGS. 7A-7F. NEAT1 is required for primary cells immortalization. NEAT1 expression in induced in mouse embryonic fibroblasts (MEFs) upon Nutlin3a exposure (FIG. 7A) and replicative passaging on a 3T3 protocol (FIG. 7B).

Data set [2] concerns NEAT1. Briefly: NEAT1 induction by Nutlin3a (RNA-seq, qPCR) in human cell lines. The format is cell-based. How it is done: as §1, §2
Both isoforms are affected, with the effect being stronger for the longer isoform (NEAT1_2).
(§3) To differentiate between the different isoforms of NEAT, the following strategy was used. All qPCRs labeled NEAT1 or NEAT1_1 were done with primers targeting the region of +/−2200 bp. The knock-down probes labeled as such also target the region between 2000 and 3756 bp. The RNA-FISH probeset used is made up of a large set of oligos targeting region 1-3756 bp. The primers and knock-down probes labeled NEAT1_2 (the long transcript) target a region of +/−21300 bp. The RNA-FISH probes (again a set of oligos) target the portion from 3800-11700 bp to avoid detection of shorter isoforms.
A general note: In qPCR the cycle at which signal appears reflects the starting amount.

The subject of a further data set is MCF-7 cells. Briefly: Paraspeckles formation by NEAT1 RNA-FISH in Nutlin3a-treated MCF-7 cells. The format is cell-based, human. The settings on record: for Nutlin-induced paraspeckles formation: MCF-7 following Nutlin exposure, gapmer transfection. How it is done:
FIGS. 3A and 3B. […] FIG. 3A: MCF-7 cells were exposed to Nutlin3a (for 24 hours) and paraspeckles formation (red dots) was assessed by FISH-analysis with a NEAT1-specific probe set. Nuclei were counter-stained with DAPI (Blue). FIG. 3B: Quantification of paraspeckles formation in MCF-7 cells exposed to Nutlin3a before (mock) and after transfection of the cells with a control/scramble gapmer (scr) or gapmers targeting the NEAT1 transcripts (gap4 and gap6).
as §3
A similar observation in MCF-7 cells treated with p53 shRNA confirms again that this induction is p53-dependent (data not shown). Thus, p53 stimulates the formation of paraspeckles in these cells.

In data set [3] the test system is NEAT1. Put plainly: NEAT1 induction under low/chronic or high stress conditions. The data set is classed as cell-based, human. From the text:
FIGS. 4A-4F. NEAT1 is induced in human and mouse cells exposed to low stress conditions including exposure to the inducer of senescence aurora-kinase inhibitor AZD1152-HQPA (AZD; FIG. 4A), low doses of Rotenone (Rot; FIG. 4B) that promotes oxidative stress, low doses of doxorubicin (Doxo, FIG. 4C) and replicative stress-induced damage (RS; FIG. 4D).
It has been shown that p53 is induced in MEFs during passages as a response to increasing oxidative stress levels generated by culturing of the cells in normoxic conditions. […] This is in line with chronic stress caused by UV radiation.
The same is true for cells that are exposed to high doses of irradiation (FIG. 4F).

The subject of data set [4] is cancer cell lines. Briefly: Apoptosis, caspase 3/7 glow assay and FACS analysis. The data set is classed as cell-based, human. The settings on record: gapmer transfection. From the text: (§4) FIGS. 8A-8D. NEAT1 KD reduces the cell viability of human cancer cell lines. Gapmers 4 and 5 (gap 4 and 5) were used to knock-down the expression of all NEAT1 isoforms, and Gapmer 6 (gap 6) to specifically KD expression of the long isoform, in a series of cancer cell lines.
(§5) To further extend the anti-oncogenic effects observed in NEAT1 KO mice, NEAT1 was inhibited in different cancer cells using LNA-gapmers.
(Flow cytometry measures light scatter and fluorescence of single cells or particles in a stream.)

For data set [5], the system named is cancer cell lines. Briefly: Paraspeckles formation in cancer cell lines after gapmer transfection. The format is cell-based, human.
Text: as §4, §5

The test system of another data set is BJ. Briefly: Paraspeckles formation in immortalized human diploid fibroblast cell line BJ. The data set is classed as cell-based. The settings on record: BJ cells, LNA-gapmer transfection.
Data set [6] relates to NEAT1. Put plainly: NEAT1 knock-down by LNA-gapmers (relative RNA levels, qPCR). The format is cell-based, human. The settings on record: for NEAT1 expression (knock-down): gapmer transfection, cancer cell lines; for NEAT1 isoforms inhibited: long (NEAT1_2) versus short isoform.
Text: as §4
FIGS. 9A-9C. Knock-down of NEAT1 impairs HR and NHEJ DNA repair (FIG. 9A) but not Alt-NHEJ or SSA (FIG. 9B). […] SCR: scrambled control. Blue bars, all NEAT1 isoforms. Green bars, long NEAT1 isoform.
as §3, §5
To confirm the hypothesis that NEAT1 inhibition interferes with DNA repair, U2OS cells were exposed to different concentrations of the DNA-damaging agent bleomycin. In NEAT1-inhibited cells, DNA damage (as measured by γH2AX intensity) is indeed increased (FIG. 9C, last three panels). Thus, DNA repair is severely impaired in NEAT1 KD cells.

In another data set the test system is MCF-7. Briefly: WST1-assay of cell growth / metabolic activity. The format is cell-based, human. The settings on record: gapmer transfection.
Text: as §4, §5
Background: Tetrazolium assays rely on reduction of a dye to a coloured formazan, in cell work by metabolically active cells.

On to `COc1ccc(C2=N[C@@H](c3ccc(Cl)cc3)[C@@H](c3ccc(Cl)cc3)N2C(=O)N2CCNC(=O)C2)c(OC(C)C)c1` [Nutlin3a], for which, in the data set with NEAT1 promoter, the “recruitment of p53 to the NEAT1 promoter (p53-ChIP peaks)” value is reported as “p53 is directly recruited to the NEAT1 promoter”. Further, the “expression of NEAT1” value in the data set on NEAT1 [1] was “induces expression of NEAT1”; in the data set on NEAT1 [2] (U2OS, A459, human ES cells, BJ), “induces expression of NEAT1”. Moreover, the “transcription of NEAT1 (RNA-seq)” value in the data set with NEAT1 [2] (MCF-7 cells, 24 hours) is “induces transcription of NEAT1”. The NEAT1 induction entry is “NEAT1 induction in response to Nutlin can be seen” in the data set on NEAT1 [2] (colorectal cancer cell line HCT116) and “not in an isogenic p53 KO HCT116 cell line” in the data set on NEAT1 [2] (isogenic p53 KO HCT116 cell line). The paraspeckles formation result with MCF-7 cells (MCF-7 cells, Nutlin alone) is listed as “induces paraspeckles formation”.

For `COc1cccc2c1C(=O)c1c(O)c3c(c(O)c1C2=O)C[C@@](O)(C(=O)CO)C[C@@H]3O[C@H]1C[C@H](N)[C@H](O)[C@H](C)O1` [Doxorubicin], the NEAT1 induction result with NEAT1 [3] (higher dose (5 μM)) is recorded as “not significantly”; in the data set on NEAT1 [3] (low dose) it was “induced”.

With `CCN(CCO)CCCOc1ccc2c(Nc3cc(CC(=O)Nc4cccc(F)c4)[nH]n3)ncnc2c1` [AZD, AZD1152-HQPA], in the data set on NEAT1 [3] (melanoma cells Mel 501 undergoing senescence), the NEAT1 induction entry was “induced”.

As to `C=C(C)[C@H]1Cc2c(ccc3c2O[C@@H]2COc4cc(OC)c(OC)cc4[C@@H]2C3=O)O1` [rotenone], the NEAT1 induction result in the data set on NEAT1 [3] (BJ cells, oxidative stress) was “induced”.

Consider “NEAT1-Gapmer4: LNA-gapmer, SEQ ID NO: 2, GACGTAACAGAATT; inhibits both long and short isoform of NEAT1 (LNA gapmer, LNA positions and linkages not given here)”, for which the “apoptosis (caspase 3/7 glow assay, FACS analysis)” value with cancer cell lines [4] is listed as “induction of apoptosis”. In the data set on cancer cell lines [5], the paraspeckles formation entry is on record as “robust decrease”. Further, the formation of paraspeckles entry in the data set on BJ is reported as “decrease the formation of paraspeckles”. Further, the “NEAT1 expression (knock-down)” value in the data set with NEAT1 [6] (listed as gap 4) is listed as “efficiently knockdown NEAT1; also recorded: robust decrease in NEAT1 expression”. Also, in the data set on NEAT1 [6], the NEAT1 isoforms inhibited result is “inhibit both the long and short isoform of NEAT1”. The “MCF-7 growth (WST1-assay)” value with MCF-7 is recorded as “decrease MCF-7 growth significantly”. In the data set on MCF-7 cells, the Nutlin-induced paraspeckles formation entry is “dramatically attenuated”.

Turning to “NEAT1-Gapmer6: LNA-gapmer, SEQ ID NO: 4, CTCACACGTCCATCT; specific for the long isoform of NEAT1 (LNA gapmer, LNA positions and linkages not given here)”, the formation of paraspeckles entry in the data set on BJ is on record as “decrease the formation of paraspeckles”. For the same compound, in the data set on NEAT1 [6], the “NEAT1 expression (knock-down)” value was “efficiently knockdown NEAT1” and the NEAT1 isoforms inhibited entry is “specific for the long isoform”. Besides, in the data set on NEAT1 [6] (long transcript NEAT1_2, U2OS cells), the KD efficiency result is recorded as “about 50%”. The “MCF-7 growth (WST1-assay)” value with MCF-7 is “decrease MCF-7 growth significantly”. Besides, in the data set with MCF-7 cells, the Nutlin-induced paraspeckles formation result was “dramatically attenuated”.

Regarding “NEAT1-Gapmer5: LNA-gapmer, SEQ ID NO: 3, TAAGCACTTTGGAAAG; inhibits both long and short isoform of NEAT1 (LNA gapmer, LNA positions and linkages not given here)”, the “apoptosis (caspase 3/7 glow assay, FACS analysis)” value with cancer cell lines [4] is listed as “induction of apoptosis”. Also, the paraspeckles formation entry in the data set with cancer cell lines [5] was “robust decrease”. Further, the “NEAT1 expression (knock-down)” value in the data set with NEAT1 [6] (listed as gap 5) is on record as “efficiently knockdown NEAT1; also recorded: robust decrease in NEAT1 expression”. Also, the NEAT1 isoforms inhibited result in the data set on NEAT1 [6] was “inhibit both the long and short isoform of NEAT1”. Further, the “MCF-7 growth (WST1-assay)” value in the data set with MCF-7 is “decrease MCF-7 growth significantly”.
